# According to patent US20230399312A1, “SUBSTITUTED PYRIMIDINES AND METHODS OF USE” (THERAVANCE BIOPHARMA R&D IP, LLC, priority 2020, published 2023):
# Tests used:
# [1] = biological target: T1, recombinant human ALK5 (TGF-βR1) protein (Homo sapiens, UniProt P36897); assay: Biochemical ALK5 (TGF-βR1) assay to measure pKi (LANCE Ultra ULight kinase assay); details: apparent pKi, converted from pIC50 by Cheng-Prusoff
# T1 construct: purchased Life Technologies PR9075A
# T1 sequence (P36897 34-503): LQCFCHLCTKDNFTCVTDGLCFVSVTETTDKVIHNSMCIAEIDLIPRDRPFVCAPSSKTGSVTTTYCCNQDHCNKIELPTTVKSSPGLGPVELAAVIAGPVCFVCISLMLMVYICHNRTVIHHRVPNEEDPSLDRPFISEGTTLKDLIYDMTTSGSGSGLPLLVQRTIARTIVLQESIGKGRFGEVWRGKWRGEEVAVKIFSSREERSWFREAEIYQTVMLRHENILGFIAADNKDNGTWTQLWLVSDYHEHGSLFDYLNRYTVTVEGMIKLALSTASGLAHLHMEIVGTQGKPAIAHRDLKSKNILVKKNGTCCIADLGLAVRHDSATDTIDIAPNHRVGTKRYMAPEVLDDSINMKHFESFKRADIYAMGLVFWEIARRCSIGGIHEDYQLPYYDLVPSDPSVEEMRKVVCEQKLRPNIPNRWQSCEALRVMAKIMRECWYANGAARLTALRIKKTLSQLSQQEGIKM
# Experimental: The assays were performed in a 384-well plate (24 columns×16 wells/rows). An Echo®550 Liquid Handler (Labcyte) was used to prepare various intermediate concentrations of compounds of the present disclosure in 100% DMSO. From the intermediate concentrations, a range of concentrations (from […] to 25 μM corresponding to volumes up to 105 nL) were prepared and ejected into a final assay plate to be used to create individual dose response curves for each of the subject compounds. To a separate column within the assay plate, 105 nL of DMSO in each well was used to establish a maximum assay signal. Additionally, 105 nL of 100 μM SD-208, a selective TGF-βR1 inhibitor (Catalog #S7624, Selleck Chemicals), was used in another column of wells to establish a minimal assay signal.
# With a multidrop dispenser, 8 μL of enzyme mixture (1.25× final) was added to each well. […] The plate was then sealed with an adhesive seal and allowed to equilibrate for 60 minutes at room temperature.
# Next, 2 μL of 125 μM ATP (5×final, 125 μM ATP prepared in assay buffer with 2 mM DTT) was added to the incubated mixtures, covered with a MicroClime® Environmental Lid (Product No. LLS-0310, Labcyte) and immediately transferred to 37° C. The reactions were allowed to proceed at 37° C. for 60 minutes before terminating with the addition of 10 μL of detection antibody (LANCE® (lanthanide chelate excite) Ultra Europium-anti-phospo-DNA Topoisomerase 2-alpha (Thr1342)) in detection mixture (12 mM EDTA, 4 nM detection antibody prepared in detection buffer (50 mM Tris-HCl, 150 mM NaCl, 0.5% BSA (Fraction V), pH 7.0)) at room temperature. The plate was then read on a Perkin Elmer EnVision Plate Reader using europium specific reader settings with excitation and emission wavelengths set to 320 or 340 nm and 665 nm, respectively.
# For dose-response analyses, percent inhibition versus compound concentrations were plotted, and pIC50 values were determined from a 4-parameter robust fit model with GraphPad Prism V5 Software (GraphPad Software, Inc., La Jolla, CA). This model obtains pIC50 values by fitting the sigmoidal dose-response (variable slope) equation to the data. Results were expressed as pIC50 (negative logarithm of IC50) and subsequently converted to pKi (negative logarithm of dissociate constant, Ki) using the Cheng-Prusoff equation. The higher the value of pKi (lower value of Ki), the greater the inhibition of ALK5 activity.
# [2] = tested on: TGF-β-stimulated SMAD3 phosphorylation in BEAS-2B cells; assay: Cellular ALK5 potency assay, inhibition of TGF-β stimulated pSMAD3 formation in BEAS-2B cells; format: cell-based; details: Homo sapiens, pSMAD3, TGF-β 10 ng/mL, read-out: BEAS2B pIC50 (converted)
# Experimental: The potency of compounds of the present disclosure for inhibition of TGF-β-stimulated SMAD3 phosphorylation was measured in BEAS-2B cells, a human lung epithelial cell line. TGF-β signals through activin receptor-like kinase 5 (ALK5) immediately prior to SMAD3 phosphorylation.
# BEAS-2B cells were grown using 50% DMEM (Life Technologies) and 50% F-12 (Life Technologies) media, supplemented with 10% Fetal Bovine Serum (ATCC), 25 mM HEPES (Life Technologies), and 1×Pen-Strep (Life Technologies). Cells were cultured in a humidified incubator set at 37° C., 5% CO2, and trypsonized using 0.25% Trypsin with 0.5% polyvinylpyrrolidone (PVP).
# For the assay, BEAS-2B cells were seeded at 7,500 cells/well (25 μL/well) in a 384-well plate and cultured overnight. Before dosing, growth media was aspirated and the wells were rinsed with HBSS Buffer (HBSS with Calcium and Magnesium, Life Technologies) supplemented with 25 mM HEPES (Life Technologies) and 1% Bovine Serum Albumin (Roche). Compounds were serially diluted in DMSO, then further diluted with supplemented HBSS Buffer (50 μL/well) to create a compound plate 3× of the final assay concentration, at 0.3% DMSO. The diluted compounds were then added to the cells (8 μL/well) and incubated at 37° C., 5% CO2 for 1 hour. After the compound incubation, TGF-β (R&D Systems) reconstituted in supplemented HBSS Buffer was added to the cells ([…], final concentration 10 ng/mL) and incubated for a further 30 minutes, after which the cells were immediately lysed with AlphaLISA lysis buffer (PerkinElmer). AlphaLISA Acceptor and Detector beads (PerkinElmer) were added 2 hours apart, then incubated overnight to be read the next day. The potency of the compound was determined through analysis of dose-dependent quantified changes in pSMAD3 signal from baseline (non-compound treated TGF-β stimulated cells). Data are expressed as pIC50 (negative decadic logarithm IC50) values.
Ki [1],Structure (SMILES),IC50 [2]
0.0398 to 0.316 nM,"Cc1cccc(-c2nc(Nc3ccnc(Nc4ccc(C(=O)N5CCC6(CC5)CNC6)cc4)n3)c3cccn3n2)n1 [Compound 1033, 2,7-diazaspiro[3.5]nonan-7-yl-[4-[[4-[[2-(6-methyl-2-pyridyl)pyrrolo[2,1-f][1,2,4]triazin-4-yl]amino]pyrimidin-2-yl]amino]phenyl]methanone]",25.1 to 158 nM
3.98 to 31.6 nM,"Cc1cccc(-c2nccc(Nc3ccnc(Nc4cccc(S(=O)(=O)N(C)C5CCNCC5)c4)n3)n2)n1 [Compound 87, N-methyl-3-[[4-[[2-(6-methyl-2-pyridyl)pyrimidin-4-yl]amino]pyrimidin-2-yl]amino]-N-(4-piperidyl)benzenesulfonamide]",200 to 1260 nM
0.0398 to 0.316 nM,"Cc1cccc(-c2nccc(Nc3ccnc(Nc4ccc(CN5CCNCC5)cc4)n3)n2)n1 [Compound 359, N4-[2-(6-methyl-2-pyridyl)pyrimidin-4-yl]-N2-[4-(piperazin-1-ylmethyl)phenyl]pyrimidine-2,4-diamine]",25.1 to 158 nM
0.0398 to 0.316 nM,"Cc1cccc(-c2nccc(Nc3ccnc(Nc4ccc(CC5CCNCC5)cc4)n3)n2)n1 [Compound 476, N4-[2-(6-methyl-2-pyridyl)pyrimidin-4-yl]-N2-[4-(4-piperidylmethyl)phenyl] pyrimidine-2,4-diamine]",25.1 to 158 nM
0.0398 to 0.316 nM,"Cc1cccc(-c2nccc(Nc3ccnc(Nc4ccc(CN5CCOCC5)cc4)n3)n2)n1 [Compound 366, N4-[2-(6-methyl-2-pyridyl)pyrimidin-4-yl]-N2-[4-(morpholinomethyl)phenyl] pyrimidine-2,4-diamine]",25.1 to 158 nM
≤ 0.0316 nM,"Cc1cccc(-c2nccc(Nc3ccnc(Nc4csc(C(=O)NCC5(CO)CNC5)c4)n3)n2)n1 [Compound 378, N-[[3-(hydroxymethyl)azetidin-3-yl]methyl]-4-[[4-[[2-(6-methyl-2-pyridyl)pyrimidin-4-yl]amino]pyrimidin-2-yl]amino]thiophene-2-carboxamide]",25.1 to 158 nM

# Second part, the compound before the results:
Structure (SMILES),Ki [1],IC50 [2]
"Cc1cccc(-c2nccc(Nc3ccnc(Nc4csc(C(=O)O[C@@H]5CCN(C)C5)c4)n3)n2)n1 [Compound 504, [(3R)-1-methylpyrrolidin-3-yl] 4-[[4-[[2-(6-methyl-2-pyridyl)pyrimidin-4-yl]amino]pyrimidin-2-yl]amino]thiophene-2-carboxylate]",0.0398 to 0.316 nM,25.1 to 158 nM
"Cc1cccc(-c2nccc(Nc3ccnc(Nc4csc(C(=O)OC[C@@H]5CCCN5)c4)n3)n2)n1 [Compound 637, [(2S)-pyrrolidin-2-yl]methyl 4-[[4-[[2-(6-methyl-2-pyridyl)pyrimidin-4-yl]amino]pyrimidin-2-yl]amino]thiophene-2-carboxylate]",0.0398 to 0.316 nM,25.1 to 158 nM
"Fc1ccc(-c2nccc(Nc3ccnc(Nc4ccc(N5CCOCC5)cc4)n3)n2)c(F)c1 [Compound 35, N4-[2-(2,4-difluorophenyl)pyrimidin-4-yl]-N2-(4-morpholinophenyl) pyrimidine-2,4-diamine]",3.98 to 31.6 nM,25.1 to 158 nM
"Cc1cccc(-c2nccc(Nc3ccnc(Nc4ccc(CC5CCNC5)cc4)n3)n2)n1 (stereo not drawn) [Compound 489, N4-(2-(6-methylpyridin-2-yl)pyrimidin-4-yl)-N2-(4-(pyrrolidin-3-ylmethyl)phenyl)pyrimidine-2,4-diamine]",0.0398 to 0.316 nM,25.1 to 158 nM
"Cc1cccc(-c2nccc(Nc3ccnc(Nc4ccc(N5CCN(C(=O)CSC(CCO)C(=O)O)CC5)cc4)n3)n2)n1 (stereo not drawn) [Compound 37, 4-hydroxy-2-[2-[4-[4-[[4-[[2-(6-methyl-2-pyridyl)pyrimidin-4-yl]amino]pyrimidin-2-yl]amino]phenyl]piperazin-1-yl]-2-oxo-ethyl]sulfanyl-butanoic acid]",0.0398 to 0.316 nM,200 to 1260 nM
"Cc1cccc(-c2nccc(Nc3ccnc(Nc4ccc(NS(=O)(=O)C5CCNC5)cc4)n3)n2)n1 (stereo not drawn) [Compound 413, N-[4-[[4-[[2-(6-methyl-2-pyridyl)pyrimidin-4-yl]amino]pyrimidin-2-yl]amino]phenyl]pyrrolidine-3-sulfonamide]",0.398 to 3.16 nM,200 to 1260 nM
"Cc1cccc(-c2nccc(Nc3ccnc(Nc4ccc(S(N)(=O)=O)cc4)n3)n2)n1 [Compound 108, 4-((4-((2-(6-methylpyridin-2-yl)pyrimidin-4-yl)amino)pyrimidin-2-yl)amino)benzenesulfonamide]",0.0398 to 0.316 nM,25.1 to 158 nM
"COC(=O)C1CCN(Cc2ccc(Nc3nccc(Nc4ccnc(-c5cccc(C)n5)n4)n3)cc2)CC1 [Compound 28, methyl 1-[[4-[[4-[[2-(6-methyl-2-pyridyl)pyrimidin-4-yl]amino]pyrimidin-2-yl]amino]phenyl]methyl] piperidine-4-carboxylate]",0.0398 to 0.316 nM,≤ 20 nM
"Cc1cccc(-c2nccc(Nc3ccnc(Nc4ccc(CN5CCN[C@@H](CO)C5)cc4)n3)n2)n1 [Compound 183, [(2R)-4-[[4-[[4-[[2-(6-methyl-2-pyridyl)pyrimidin-4-yl]amino]pyrimidin-2-yl]amino]phenyl]methyl]piperazin-2-yl]methanol]",0.0398 to 0.316 nM,25.1 to 158 nM
"Cc1cccc(-c2nccc(Nc3ccnc(Nc4ccc(NCC5(O)CNC5)cc4)n3)n2)n1 [Compound 490, 3-[[4-[[4-[[2-(6-methyl-2-pyridyl)pyrimidin-4-yl]amino]pyrimidin-2-yl]amino]anilino]methyl] azetidin-3-ol]",0.0398 to 0.316 nM,25.1 to 158 nM
"COc1cc(Nc2nccc(Nc3ccnc(-c4cccc(C)n4)n3)n2)ccc1N1CCOCC1 [Compound 79, N2-(3-methoxy-4-morpholino-phenyl)-N4-[2-(6-methyl-2-pyridyl)pyrimidin-4-yl]pyrimidine-2,4-diamine]",0.0398 to 0.316 nM,25.1 to 158 nM
"Cc1cccc(-c2nccc(Nc3ccnc(Nc4ccc(CN5CC(C(=O)O[C@@H]6CCN(C)C6)C5)cc4)n3)n2)n1 [Compound 69, [(3R)-1-methylpyrrolidin-3-yl] 1-[[4-[[4-[[2-(6-methyl-2-pyridyl)pyrimidin-4-yl]amino]pyrimidin-2-yl]amino]phenyl]methyl] azetidine-3-carboxylate]",0.0398 to 0.316 nM,25.1 to 158 nM
